How the values were obtained:
[1] = cited from earlier work
Human MOR = Human MOR (Homo sapiens (Human), UniProt P35372); assay: Opioid receptor affinity, Mu (MOR), NIMH PDSP; type: binding; conditions: read-out: MOR % inh. at 10 uM
Method: (§1) The compounds were tested for activity vs. opioid receptor subtypes Kappa (KOR), Delta (DOR) and Mu (MOR) at an initial concentration of 10 μM each, through the NIMH Psychoactive Drug Screening Program (PDSP), operated by Dr. Bryan Roth and his colleagues in the Department of Pharmacology at the University of North Carolina (Chapel Hill, N.C.) through an agreement with the National Institute of Mental Health (NIMH). Human KOR, DOR and MOR were expressed in CHO cells for each assay.

Human DOR = Human DOR (Homo sapiens (Human), UniProt P41143); assay: Opioid receptor affinity, Delta (DOR), NIMH PDSP; type: binding; conditions: read-out: DOR % inh. at 10 uM
Method: as §1

Human KOR = Human KOR (Homo sapiens (Human), UniProt P41145); assay: Opioid receptor affinity, Kappa (KOR), NIMH PDSP; type: binding; conditions: human KOR expressed in CHO cells
Method: as §1

Sequence of Human DOR (P41143 whole entry): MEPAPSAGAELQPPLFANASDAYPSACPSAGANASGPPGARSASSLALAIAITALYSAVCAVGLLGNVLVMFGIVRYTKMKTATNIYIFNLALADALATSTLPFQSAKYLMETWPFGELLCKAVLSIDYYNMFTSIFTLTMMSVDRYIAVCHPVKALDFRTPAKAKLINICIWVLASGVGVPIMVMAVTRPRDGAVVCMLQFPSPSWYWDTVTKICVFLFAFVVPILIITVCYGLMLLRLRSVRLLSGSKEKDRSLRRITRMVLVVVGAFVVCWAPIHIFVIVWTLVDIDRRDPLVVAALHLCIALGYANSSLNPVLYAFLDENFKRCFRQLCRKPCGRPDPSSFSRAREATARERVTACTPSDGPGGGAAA
Sequence of Human MOR (P35372 whole entry): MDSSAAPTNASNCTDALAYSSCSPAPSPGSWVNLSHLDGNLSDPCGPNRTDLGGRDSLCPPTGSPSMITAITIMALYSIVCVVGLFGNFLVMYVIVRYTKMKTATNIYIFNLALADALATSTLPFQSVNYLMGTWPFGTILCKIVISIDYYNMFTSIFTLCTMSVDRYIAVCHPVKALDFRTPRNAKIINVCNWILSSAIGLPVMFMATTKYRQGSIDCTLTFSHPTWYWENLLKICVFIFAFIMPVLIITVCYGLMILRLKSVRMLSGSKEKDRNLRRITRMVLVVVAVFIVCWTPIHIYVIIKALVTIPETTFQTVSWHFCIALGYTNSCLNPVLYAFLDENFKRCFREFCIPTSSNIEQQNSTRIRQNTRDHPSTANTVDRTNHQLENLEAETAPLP
Sequence of Human KOR (P41145 whole entry): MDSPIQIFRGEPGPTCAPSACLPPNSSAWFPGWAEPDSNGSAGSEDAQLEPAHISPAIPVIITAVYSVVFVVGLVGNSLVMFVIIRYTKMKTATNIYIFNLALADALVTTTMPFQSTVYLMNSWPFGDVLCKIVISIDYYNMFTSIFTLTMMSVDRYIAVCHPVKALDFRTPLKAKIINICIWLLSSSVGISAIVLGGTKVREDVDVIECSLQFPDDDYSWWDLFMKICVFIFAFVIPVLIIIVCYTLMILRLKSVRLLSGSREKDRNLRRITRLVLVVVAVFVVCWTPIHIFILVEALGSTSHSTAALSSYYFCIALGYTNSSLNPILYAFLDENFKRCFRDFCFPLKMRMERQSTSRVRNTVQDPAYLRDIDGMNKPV

Row | inhibition at 10 µM (Human MOR) [%] | inhibition at 10 µM (Human DOR) [%] | Ki (Human KOR) [nM] | Structure (SMILES) | dysphoric behavior or hallucinations ([1]; Phase II trials in the U.S.) | incidence of nausea and vomiting ([1]; post-operative patients)
1 | – | – | – | CC(C)C[C@@H](NC(=O)[C@@H](Cc1ccccc1)NC(=O)[C@H](N)Cc1ccccc1)C(=O)N[C@H](CCCCN)C(=O)N1CCC(N)(C(=O)O)CC1 [CR845] | has not displayed dysphoric behavior or hallucinations | reduced incidence of nausea and vomiting
2 | 39 | 10 | 30 | CN(C)CCCC1(c2ccc(F)cc2)OCc2cc(C(=N)NCc3ccccc3)ccc21 (stereo not shown) [Example 4, N-benzyl-1-[3-(dimethylamino)propyl]-1-(4-fluorophenyl)-1,3-dihydro-2-benzofuran-5-carboximidamide] | – | –
3 | 8 | 6 | 249 | CN(C)CCCC1(c2ccc(F)cc2)OCc2cc(C(=N)N3CCCC3)ccc21 (stereo not shown) [Example 6, 1-[1-[3-(dimethylamino)propyl]-1-(4-fluorophenyl)-1,3-dihydro-2-benzofuran-5-yl]-1-(pyrrolidin-1-yl)-methanimine] | – | –
4 | 39 | 24 | – | CN(C)CCCC1(c2ccc(F)cc2)OCc2cc(-c3ncc[nH]3)ccc21 (stereo not shown) [Example 7] | – | –
